Experimental data reported in US8501803B2, “Garcinia derivative, its preparing method and medicinal use” (China Pharmaceutical University, priority 2010, dated 2013).

Assays:
[1] = tested on: MCF-7 cells (human breast cancer cells); assay: MTT antiproliferative test on MCF-7 cells; type: cell-based; conditions: MCF7, 96 h, 4 days culture, MCF-7 human breast cancer cells, read-out: MCF-7 cell IC50
Method: (§1) Test method: The cells of log phase are cultivated in the culture plate with 96 pores, and each pore contains 100 μL of solution (including 1000-1200 tumor cells). The next day, different concentrations of the present compound are added to the treatment groups, each compound contains 4 to 5 dosage groups, and each dosage group contains at least 3 parallel pores. The solvent with an equivalent volume of the said compound is added to the control groups. The said culture plate is then placed in a 5% CO2 incubator, cultured at 37° C., and the culture solution is discharged 4 days later. Next, 200 μL of the 0.2% MTT solution (RPMI1640 preparation) is added to each pore and incubated at 37° C. for 4 hours; the obtained supernatant is discharged; and 150 μL of DMSO is added to each pore so as to dissolve formazane particles. After slightly shaking the mixture, the optical density (OD) is measured by the ELIASA in the conditions of a resulting reference wavelength 450 nm and a detection wavelength 570 nm. The tumor cells treated with solvent are used as control groups, and the inhibition rate of the drugs against the tumor cells and IC50 are calculated according to the following equation. […] The MCF-7 cells are human breast cancer cells and the BGC-823 cells are human gastric carcinoma cells.

[2] = tested on: BGC-823 cells (human gastric carcinoma cells); assay: MTT antiproliferative test on BGC-823 cells; type: cell-based; conditions: 96 h, 4 days culture, BGC-823 human gastric carcinoma cells, read-out: BGC-823 cell IC50
Method: as §1

| IC50 [1] [µM] | IC50 [2] [µM] | melting point [°C] | Structure (SMILES) |
| --- | --- | --- | --- |
| 10.9 | 18.2 | 148 to 150 | CC(C)=CCc1cc2c(cc1O)C(=O)C1=CC3C4CC1(O2)C(=O)C3(CC=C(C)C)OC4(C)C (stereo not drawn) [CPUY I-7, 1,3a,4,11a-tetrahydro-3,3-dimethyl-1,7-bis(3-methyl-2-butenyl)-8-hydroxyl-3H-1,4-a-dimethylene-10H-furan[3,4-b]xanthene-10,12-diketone] |
| – | – | 158 to 159 | CC(C)=CCC12OC(C)(C)C3CC(C=C4C(=O)c5cc(O)ccc5OC431)C2=O (stereo not drawn) |
| 12.4 | 17.6 | 197 to 199 | CC(C)=CCC12OC(C)(C)C3CC(C=C4C(=O)c5ccc(O)cc5OC431)C2=O (stereo not drawn) [CPUY I-2, 3,3a,4,5-tetrahydro-3,3-dimethyl-1-(3-methyl-2-butenyl)-10-hydroxyl-1,5-dimethylene-1H,7H-furan[3,4-d]xanthene-7,13-diketone] |
| – | – | 203 to 205 | CC(C)=CCC12OC(C)(C)C3CC(C=C4C(=O)c5cccc(O)c5OC431)C2=O (stereo not drawn) |
| 9.16 | 3.59 | – | CC(C)=CCC12OC(C)(C)C3CC(C=C4C(=O)c5c(O)cccc5OC431)C2=O (stereo not drawn) [CPUY I-1, 3,3a,4,5-tetrahydro-3,3-dimethyl-1-(3-methyl-2-butenyl)-8-hydroxyl-1,5-dimethylene-1H,7H-furan[3,4-d]xanthene-7,13-diketone] |
| 9.06 | 11.3 | 157 to 158 | CC(C)=CCc1ccc2c(c1O)OC13C(=CC4CC1C(C)(C)OC3(CC=C(C)C)C4=O)C2=O (stereo not drawn) [CPUY I-8, 3,3a,4,5-tetrahydro-3,3-dimethyl-1,10-bis(3-methyl-2-butenyl)-11-hydroxyl-1,5-dimeth ylene-1H,7H-furan[3,4-d]xanthene-7,13-diketone] |

| Structure (SMILES) | IC50 [1] [µM] | IC50 [2] [µM] | melting point [°C] |
| --- | --- | --- | --- |
| CC(C)=CCc1c(O)ccc2c1OC13C(=CC4CC1C(C)(C)OC3(CC=C(C)C)C4=O)C2=O (stereo not drawn) [CPUY I-5, 3,3a,4,5-tetrahydro-3,3-dimethyl-1,11-bis(3-methyl-2-butenyl)-10-hydroxyl-1,5-dimethylene-1H,7H-furan[3,4-d]xanthene-7,13-diketone] | 5.79 | 15 | 158 to 160 |
| CC(C)=CCC[C@]1(C)C=Cc2c(O)c3c(c(CC=C(C)C)c2O1)O[C@]12C(=C[C@@H]4C[C@H]1C(C)(C)O[C@@]2(C/C=C(/C)C(=O)O)C4=O)C3=O [Gambogic acid, gambogic acid, reference compound] | 2.19 | 2.35 | – |
| CC(C)=CCc1c(O)ccc2c1C(=O)C1=CC3CC4C(C)(C)OC(CC=C(C)C)(C3=O)C14O2 (stereo not drawn) [CPUY I-6, 3,3a,4,5-tetrahydro-3,3-dimethyl-1,8-bis(3-methyl-2-butenyl)-9-hydroxyl-1,5-dimethylene-1H,7H-furan[3,4-d]xanthene-7,13-diketone] | 11.9 | 21.7 | 138 to 139 |
